Structures can show the parent of a compound that is named as a salt.
target: T1, human PAR-2 (hPAR-2) receptor (Homo sapiens, UniProt P55085); assay: In vitro human PAR-2 functional antagonist activity using calcium assays; assay type: cell-based; conditions: hPAR-2 endogenously expressed in HEK-293 cells; stimulated by 2-Furoyl-LIGRLO-NH2 peptide; Fluo4AM intracellular calcium, FLIPR Tetra
T1 construct: expressed in HEK-293 cells in an endogenous manner; endogenous in cells; host or cells: HEK-293
T1 sequence (P55085 26-397): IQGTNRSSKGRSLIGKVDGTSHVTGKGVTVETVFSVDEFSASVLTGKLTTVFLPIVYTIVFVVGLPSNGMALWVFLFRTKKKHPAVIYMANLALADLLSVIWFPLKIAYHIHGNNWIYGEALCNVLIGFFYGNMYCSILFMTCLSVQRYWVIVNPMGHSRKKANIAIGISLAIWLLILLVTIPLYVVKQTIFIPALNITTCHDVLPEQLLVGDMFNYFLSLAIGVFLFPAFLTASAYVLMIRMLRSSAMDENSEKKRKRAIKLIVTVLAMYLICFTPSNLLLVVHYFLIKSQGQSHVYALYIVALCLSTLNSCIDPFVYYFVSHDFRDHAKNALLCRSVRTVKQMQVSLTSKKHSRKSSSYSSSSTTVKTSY
Method: Example 283: In Vitro Human PAR-2 Functional Antagonist Activity Using Calcium Assays
Examples of the present invention were tested successively for their agonist and antagonist activities on human PAR-2 (hPAR-2) receptor expressed in HEK-293 cells in an endogenous manner. Compounds exert agonist activity if, by themselves in absence of the 2-Furoyl-LIGRLO-NH2 peptide (selective hPAR-2 agonist), they activate PAR-2; they exert antagonist activity if they decrease the action of the 2-Furoyl-LIGRLO-NH2 peptide on the receptor. The assay used to determine compound activity is based on calcium measurement.
Cell Culture: HEK-293 cells were maintained in Dulbecco's Modified Eagle's Medium supplemented with 10% Foetal Calf Serum, 1% Penicillin/Streptomycin at 37° C./5% CO2. Flasks for tests (F75) are seeded with 6e+06 cells 24 h before the experiment at 37° C./5% CO2.
Calcium assay: Receptor activity was detected by changes in intracellular calcium measured using the fluorescent Ca^2+ sensitive dye, Fluo4AM (Molecular Probes).
The day of the assay, medium was replaced by assay buffer (HBSS 1× (Gibco 14175-053), Hepes 20 mM, MgSO4-7H2O 1 mM, Na2CO3 3.3 mM, CaCl2—2H2O 2.6 mM, 0.5% bovine serum albumin (BSA), Probenecid 2.5 mM, 0.1 mg/mL Pluronic Acid) and complemented with 1 μM Fluo4AM and cells were incubated during 1:30 h at 37° C.
Cells were then detached, resuspended in assay buffer and seeded in 384 wells, transparent-flat bottom black walled plates (2e+04 cells per well). Plates were incubated at +22° C. for 20 min. Compounds stock solutions were prepared in 100% DMSO and dilutions in test buffer were carried out in polypropylene plates with a digital dispenser (D300e, Tecan). Compounds were added to the cells and intracellular Ca^2+ measurements were collected at the same time on FLIPR Tetra® (Molecular Devices) with specific filters (Exc: 470-495 nm/Em: 515-575 nm).
Agonist and antagonist activities of compounds were consecutively evaluated on the same cell plate. Agonist activity was first measured after 10 min incubation with the compound alone. Then, cells were stimulated by an […] of the 2-Furoyl-LIGRLO-NH2 peptide and fluorescence was recorded for an additional 5 min. EC50 of the 2-Furoyl-LIGRLO-NH2 peptide was the concentration giving 80% of the maximal 2-Furoyl-LIGRLO-NH2 response. Agonist activities are evaluated in comparison to basal signals evoked by assay buffer or maximal 2-Furoyl-LIGRLO-NH2 response. […] Antagonist activities are evaluated in comparison to basal signals evoked by assay buffer or EC50 of 2-Furoyl-LIGRLO-NH2 alone.

Compound	IC50 [µM]
CC1(C)CN(c2ccc(CC(=O)O)cn2)CCN1C(=O)c1ccc2c(n1)C1(CCC1)CN2c1ccc(Cl)c(F)c1 [Example 119, 2-(6-(4-(1′-(4-chloro-3-fluorophenyl)-1′,2′-dihydrospiro[cyclobutane-1,3′-pyrrolo[3,2-b]pyridine]-5′-carbonyl)-3,3-dimethylpiperazin-1-yl)pyridin-3-yl)acetic acid]	< 0.5
Cc1cc(N2CCN(C(=O)c3ccc4c(n3)C3(CCOCC3)CN4c3ccc(Cl)c(F)c3)C(C)(C)C2)nc(C)c1C(=O)O [Example 56, 6-(4-(1′-(4-chloro-3-fluorophenyl)-1′,2,2′,3,5,6-hexahydrospiro[pyran-4,3′-pyrrolo[3,2-b]pyridine]-5′-carbonyl)-3,3-dimethylpiperazin-1-yl)-2,4-dimethylnicotinic acid]	< 0.5
CC1(C)CN(c2ccc(Cl)c(F)c2)c2ncc(C(=O)N3CCN(c4ccc(CC(=O)O)cn4)CC3(C)C)nc21 [Example 173, 2-(6-(4-(5-(4-chloro-3-fluorophenyl)-7,7-dimethyl-6,7-dihydro-5H-pyrrolo[2,3-b]pyrazine-2-carbonyl)-3,3-dimethylpiperazin-1-yl)pyridin-3-yl)acetic acid]	< 0.5
Cc1cc(N2CCN(C(=O)c3ccc4c(n3)C(C)(C)CN4c3ccc(Cl)cn3)C(C)(C)C2)nc(C)c1C(=O)O [Example 134, 6-(4-(1-(5-chloropyridin-2-yl)-3,3-dimethyl-2,3-dihydro-1H-pyrrolo[3,2-b]pyridine-5-carbonyl)-3,3-dimethylpiperazin-1-yl)-2,4-dimethylnicotinic acid]	< 0.5
CC1(C)CN(c2ccc(Cl)c(F)c2)c2ccc(C(=O)N3CCN(C(=O)CCC(=O)O)CC3(C)C)nc21 [Example 26, 4-(4-(1-(4-chloro-3-fluorophenyl)-3,3-dimethyl-2,3-dihydro-1H-pyrrolo[3,2-b]pyridine-5-carbonyl)-3,3-dimethylpiperazin-1-yl)-4-oxobutanoic acid]	0.5 to 10
CC1(C)CN(c2ccc(Cl)c(F)c2)c2ccc(C(=O)N3CCN(c4ncc(C(=O)O)cn4)CC3(C)C)nc21 [Example 41, 2-(4-(1-(4-chloro-3-fluorophenyl)-3,3-dimethyl-2,3-dihydro-1H-pyrrolo[3,2-b]pyridine-5-carbonyl)-3,3-dimethylpiperazin-1-yl)-pyrimidine-5-carboxylic acid hydrochloride]	< 0.5
CC1(C)CN(c2ccc(Cl)c(F)c2)c2ccc(C(=O)N3CCN(c4cncc(C(=O)O)c4)CC3(C)C)nc21 [Example 151, 5-(4-(1-(4-chloro-3-fluorophenyl)-3,3-dimethyl-2,3-dihydro-1H-pyrrolo[3,2-b]pyridine-5-carbonyl)-3,3-dimethylpiperazin-1-yl)nicotinic acid]	< 0.5
Cc1cc(N2CCN(C(=O)c3cnc4c(n3)C(C)(C)CN4C3CCCC3)C(C)(C)C2)nc(C)c1C(=O)O [Example 183, 6-(4-(5-cyclopentyl-7,7-dimethyl-6,7-dihydro-5H-pyrrolo[2,3-b]pyrazine-2-carbonyl)-3,3-dimethylpiperazin-1-yl)-2,4-dimethylnicotinic acid]	> 10
CC1(C)CN(c2ccc(Cl)c(F)c2)c2ccc(C(=O)N3CCC4(C3)C(=O)Nc3ccccc34)nc21 (centres unmarked) [Example 120, 1′-(1-(4-chloro-3-fluorophenyl)-3,3-dimethyl-2,3-dihydro-1H-pyrrolo[3,2-b]pyridine-5-carbonyl)spiro[indoline-3,3′-pyrrolidin]-2-one]	> 10
CC1(C)C(=O)NCCN1C(=O)c1ccc2c(n1)C1(CCCC1)CN2c1ccccc1Cl [Example 10, 4-(1′-(2-chlorophenyl)-1′,2′-dihydrospiro[cyclopentane-1,3′-pyrrolo[3,2-b]pyridine]-5′-carbonyl)-3,3-dimethylpiperazin-2-one]	0.5 to 10
Cc1cc(N2CCN(C(=O)c3cnc4c(n3)C(C)(C)CN4c3cc(F)c(Cl)c(F)c3)C(C)(C)C2)nc(C)c1C(=O)O [Example 187, 6-(4-(5-(4-chloro-3,5-difluorophenyl)-7,7-dimethyl-6,7-dihydro-5H-pyrrolo[2,3-b]pyrazine-2-carbonyl)-3,3-dimethylpiperazin-1-yl)-2,4-dimethylnicotinic acid]	< 0.5
CC1(C)CN(CCc2ccc(F)cc2)c2ncc(C(=O)N3CCN(c4ccc(CC(=O)O)cn4)CC3(C)C)nc21 [Example 211, 2-(6-(4-(5-(4-fluorophenethyl)-7,7-dimethyl-6,7-dihydro-5H-pyrrolo[2,3-b]pyrazine-2-carbonyl)-3,3-dimethylpiperazin-1-yl)pyridin-3-yl)acetic acid]	0.5 to 10
Cc1cc(N2CCN(C(=O)c3cnc4c(n3)C3(CN4c4ccc(F)c(F)c4)CC(C)(C)C3)C(C)(C)C2)nc(C)c1C(=O)O [Example 233, 6-(4-(5′-(3,4-difluorophenyl)-3,3-dimethyl-5′,6′-dihydrospiro[cyclobutane-1,7′-pyrrolo[2,3-b]pyrazine]-2′-carbonyl)-3,3-dimethylpiperazin-1-yl)-2,4-dimethylnicotinic acid]	< 0.5
Cc1cc(N2CCN(C(=O)c3cnc4c(n3)C(C)(C)CN4c3ccc(Cl)c(F)c3)C(C)(C)C2)c(C(=O)O)c(C)n1 [Example 263, 4-(4-(5-(4-chloro-3-fluorophenyl)-7,7-dimethyl-6,7-dihydro-5H-pyrrolo[2,3-b]pyrazine-2-carbonyl)-3,3-dimethylpiperazin-1-yl)-2,6-dimethylnicotinic acid]	> 10
Cc1cc(N2CCN(C(=O)c3ccc4c(n3)C(C)(C)CN4c3ccc(Cl)c(F)c3)C(C)(C)C2)nc(C)c1C(=O)O [Example 45, 6-(4-(1-(4-chloro-3-fluorophenyl)-3,3-dimethyl-2,3-dihydro-1H-pyrrolo[3,2-b]pyridine-5-carbonyl)-3,3-dimethylpiperazin-1-yl)-2,4-dimethylnicotinic acid]	< 0.5
Cc1ccc(N2CC(C)(C)c3nc(C(=O)N4CCN(c5ccc(CC(=O)O)cn5)CC4(C)C)cnc32)cc1Cl [Example 251, 2-(6-(4-(5-(3-chloro-4-methylphenyl)-7,7-dimethyl-6,7-dihydro-5H-pyrrolo[2,3-b]pyrazine-2-carbonyl)-3,3-dimethylpiperazin-1-yl)pyridin-3-yl)acetic acid]	< 0.5
CC1(C)CN(c2ccc(Cl)c(F)c2)Cc2cn(C(=O)N3CCN(c4ccc(CC(=O)O)cn4)CC3(C)C)nc21 [Example 273, 2-(6-(4-(5-(4-chloro-3-fluorophenyl)-7,7-dimethyl-4,5,6,7-tetrahydro-2H-pyrazolo[4,3-c]pyridine-2-carbonyl)-3,3-dimethylpiperazin-1-yl)pyridin-3-yl)acetic acid]	0.5 to 10
Cc1cc(N2CCN(C(=O)c3ccc4c(n3)C3(CCCC3)CN4c3ccc(Cl)c(F)c3)C(C)(C)C2)nc(C)c1C(=O)O [Example 8, 6-(4-(1′-(4-chloro-3-fluorophenyl)-1′,2′-dihydrospiro[cyclopentane-1,3′-pyrrolo[3,2-b]pyridine]-5′-carbonyl)-3,3-dimethylpiperazin-1-yl)-2,4-dimethylnicotinic acid]	< 0.5
CC1(C)CN(c2ccc(F)c(F)c2)c2ncc(C(=O)N3CCN(c4ccc(CC(=O)O)cn4)CC3(C)C)nc21 [Example 171, 2-(6-(4-(5-(3,4-difluorophenyl)-7,7-dimethyl-6,7-dihydro-5H-pyrrolo[2,3-b]pyrazine-2-carbonyl)-3,3-dimethylpiperazin-1-yl)pyridin-3-yl)acetic acid]	< 0.5
CC1(C)CN(c2ccc(Cl)c(F)c2)c2ccc(C(=O)N3CCN(c4nc(C(=O)N5CCOCC5)cs4)CC3(C)C)nc21 [Example 82, (1-(4-chloro-3-fluorophenyl)-3,3-dimethyl-2,3-dihydro-1H-pyrrolo[3,2-b]pyridin-5-yl)(2,2-dimethyl-4-(4-(morpholine-4-carbonyl)thiazol-2-yl)piperazin-1-yl)methanone]	< 0.5
